Experiments:
human TRPA1 = target: T1, human TRPA1 (Homo sapiens, UniProt O75762); experiment: 45Calcium uptake assay: inhibition of AITC induced cellular uptake of radioactive calcium, human TRPA1 expressing CHO cells; format: cell-based; conditions: AITC 30 μM; for inhibition at 1 µM: 1.0 μM compound, read-out: human TRPA1 Percentage inhibition at 1.0 μM; for inhibition at 10 µM: 10.0 μM compound, read-out: human TRPA1 Percentage inhibition at 10.0 μM; for IC50: class symbols
T1 construct: expressed in transfected cells; host or cells: CHO cells (G-418 selection)
T1 sequence (O75762 whole entry): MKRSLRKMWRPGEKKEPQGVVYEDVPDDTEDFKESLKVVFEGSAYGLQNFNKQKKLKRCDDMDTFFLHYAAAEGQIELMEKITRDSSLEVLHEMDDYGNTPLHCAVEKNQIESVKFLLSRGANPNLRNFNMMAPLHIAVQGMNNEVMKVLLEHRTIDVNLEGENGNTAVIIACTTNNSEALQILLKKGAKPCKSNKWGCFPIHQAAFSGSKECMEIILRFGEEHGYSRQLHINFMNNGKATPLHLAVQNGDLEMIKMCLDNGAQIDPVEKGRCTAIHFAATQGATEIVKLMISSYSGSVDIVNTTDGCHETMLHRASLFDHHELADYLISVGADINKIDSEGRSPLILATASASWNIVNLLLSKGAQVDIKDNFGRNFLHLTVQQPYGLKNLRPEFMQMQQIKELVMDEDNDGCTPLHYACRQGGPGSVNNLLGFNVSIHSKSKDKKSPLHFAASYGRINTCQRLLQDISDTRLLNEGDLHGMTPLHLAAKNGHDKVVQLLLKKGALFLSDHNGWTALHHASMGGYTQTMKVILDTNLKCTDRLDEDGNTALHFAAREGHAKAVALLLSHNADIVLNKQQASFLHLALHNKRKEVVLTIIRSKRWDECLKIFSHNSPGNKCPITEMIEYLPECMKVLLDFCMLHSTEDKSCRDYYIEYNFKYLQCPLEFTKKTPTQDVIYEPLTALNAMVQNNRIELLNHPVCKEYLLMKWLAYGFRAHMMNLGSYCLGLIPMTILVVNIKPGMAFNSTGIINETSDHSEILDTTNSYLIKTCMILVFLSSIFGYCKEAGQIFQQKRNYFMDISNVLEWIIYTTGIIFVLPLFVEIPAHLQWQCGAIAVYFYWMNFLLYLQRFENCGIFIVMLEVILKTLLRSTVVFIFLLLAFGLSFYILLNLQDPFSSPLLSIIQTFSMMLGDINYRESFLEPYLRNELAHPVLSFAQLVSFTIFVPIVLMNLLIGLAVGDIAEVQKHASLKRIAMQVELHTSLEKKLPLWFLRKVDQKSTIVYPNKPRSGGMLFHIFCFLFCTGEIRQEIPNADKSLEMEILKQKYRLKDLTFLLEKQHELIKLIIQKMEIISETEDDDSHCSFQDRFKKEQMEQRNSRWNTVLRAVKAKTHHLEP
Summary of the method: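 CHO cells expressing TRPA1 were preincubated 10 min with compound (0.5% DMSO final), then given AITC (30 μM human, 10 μM rat) plus 5 μCi/ml 45Ca2+ for 3 min. Lysate radioactivity measured by scintillation; IC50 obtained by nonlinear regression of % maximal response without antagonist.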

rat TRPA1 = target: T2, rat TRPA1 (Rattus norvegicus, UniProt Q6RI86); experiment: 45Calcium uptake assay: inhibition of AITC induced cellular uptake of radioactive calcium, rat TRPA1 expressing CHO cells; format: cell-based; conditions: AITC 10 μM; for inhibition at 10 µM: 10.0 μM compound, read-out: rat TRPA1 Percentage inhibition at 10.0 μM; for inhibition at 1 µM: read-out: rat TRPA1 Percentage inhibition; for IC50: class symbols
T2 construct: expressed in transfected cells; host or cells: CHO cells (Zeocin selection)
T2 sequence (Q6RI86 whole entry): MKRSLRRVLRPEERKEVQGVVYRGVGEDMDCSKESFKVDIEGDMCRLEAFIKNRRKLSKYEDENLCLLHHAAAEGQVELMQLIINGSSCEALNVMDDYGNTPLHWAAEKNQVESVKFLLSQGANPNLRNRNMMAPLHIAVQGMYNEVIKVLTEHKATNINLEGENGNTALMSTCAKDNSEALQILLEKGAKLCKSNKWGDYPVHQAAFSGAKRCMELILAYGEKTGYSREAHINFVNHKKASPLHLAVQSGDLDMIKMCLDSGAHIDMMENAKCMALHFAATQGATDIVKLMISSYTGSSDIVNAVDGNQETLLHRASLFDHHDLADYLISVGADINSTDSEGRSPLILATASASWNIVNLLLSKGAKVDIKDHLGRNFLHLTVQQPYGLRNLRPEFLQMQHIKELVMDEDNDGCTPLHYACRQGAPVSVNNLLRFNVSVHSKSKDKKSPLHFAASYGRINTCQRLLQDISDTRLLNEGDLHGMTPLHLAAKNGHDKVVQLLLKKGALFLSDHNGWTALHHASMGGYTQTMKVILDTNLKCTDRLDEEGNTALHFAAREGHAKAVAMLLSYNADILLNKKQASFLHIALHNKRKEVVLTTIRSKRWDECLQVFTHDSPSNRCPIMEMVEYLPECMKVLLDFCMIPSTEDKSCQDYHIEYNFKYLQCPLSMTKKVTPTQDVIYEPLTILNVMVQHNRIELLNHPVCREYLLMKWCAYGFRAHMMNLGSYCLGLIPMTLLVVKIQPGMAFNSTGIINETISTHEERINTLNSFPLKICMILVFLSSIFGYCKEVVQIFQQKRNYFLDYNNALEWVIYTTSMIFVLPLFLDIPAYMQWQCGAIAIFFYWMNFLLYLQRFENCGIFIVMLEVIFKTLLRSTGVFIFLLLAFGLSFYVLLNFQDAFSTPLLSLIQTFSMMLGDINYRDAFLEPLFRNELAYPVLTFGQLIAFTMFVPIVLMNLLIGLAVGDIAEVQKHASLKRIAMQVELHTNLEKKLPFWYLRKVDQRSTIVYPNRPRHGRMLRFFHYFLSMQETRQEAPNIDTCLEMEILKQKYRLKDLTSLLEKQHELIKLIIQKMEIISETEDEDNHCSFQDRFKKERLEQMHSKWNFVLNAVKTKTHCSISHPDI
Summary of the method: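 CHO cells expressing rat or human TRPA1 were pre-treated with compound for 10 min, then given AITC (30 μM human, 10 μM rat) plus 5 μCi/ml 45Ca2+ for 3 min; final DMSO 0.5%. Lysate radioactivity was counted by scintillation. IC50 came from nonlinear regression of concentration-response curves as % of maximal response.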

| SMILES | inhibition at 1 µM (human TRPA1) [%] | inhibition at 10 µM (human TRPA1) [%] | IC50 (human TRPA1) [nM] | inhibition at 10 µM (rat TRPA1) [%] | inhibition at 1 µM (rat TRPA1) [%] | IC50 (rat TRPA1) [nM] |
| --- | --- | --- | --- | --- | --- | --- |
| Cn1c(=O)c2c(CC(=O)Nc3nc(-c4cccc(C(F)(F)F)c4F)cs3)coc2n(C)c1=O [Example 20, N1-{4-[2-Fluoro-3-(trifluoromethyl)phenyl]-1,3-thiazol-2-yl}-2-(1,3-dimethyl-2,4-dioxo-1,2,3,4-tetrahydrofuro[2,3-d]pyrimidin-5-yl)acetamide] | 98.5 | 97.5 | < 50 | 99.8 | 96.8 | < 50 |
| Cn1c(=O)c2c(CC(=O)Nc3nc(-c4cc(Cl)c(OC(F)F)c(Cl)c4)cs3)coc2n(C)c1=O [Example 38, N1-{4-[3,5-Dichloro-4-(difluoromethoxy)phenyl]-1,3-thiazol-2-yl}-2-(1,3-dimethyl-2,4-dioxo-1,2,3,4-tetrahydrofuro[2,3-d]pyrimidin-5-yl)acetamide] | 99.8 | 99.9 | < 50 | 100 | 67 | > 100 |
| Cc1oc2c(c1CC(=O)Nc1nc(-c3cccc(C(F)(F)F)c3)cs1)c(=O)n(C)c(=O)n2C [Example 51, N1-{4-[3-(Trifluoromethyl)phenyl]-1,3-thiazol-2-yl}-2-(1,3,6-trimethyl-2,4-dioxo-1,2,3,4-tetrahydrofuro[2,3-d]pyrimidin-5-yl)acetamide] | 99.8 | 100 | – | 100 | 100 | – |

More lines, now with the values ahead:

| inhibition at 1 µM (human TRPA1) [%] | inhibition at 10 µM (human TRPA1) [%] | IC50 (human TRPA1) [nM] | inhibition at 10 µM (rat TRPA1) [%] | inhibition at 1 µM (rat TRPA1) [%] | IC50 (rat TRPA1) [nM] | SMILES |
| --- | --- | --- | --- | --- | --- | --- |
| 99.9 | 100 | < 50 | 98.2 | 98.9 | 50 to 100 | Cn1c(=O)c2c(CC(=O)Nc3nc(-c4ccc(Cl)c(OC(F)(F)F)c4)cs3)coc2n(C)c1=O [Example 19, N1-{4-[4-Chloro-3-(trifluoromethoxy)phenyl]-1,3-thiazol-2-yl]-2-(1,3-dimethyl-2,4-dioxo-1,2,3,4-tetrahydrofuro[2,3-d]pyrimidin-5-yl)acetamide] |
| 99.9 | 99.7 | < 50 | 100 | 100 | 50 to 100 | Cn1c(=O)c2c(CC(=O)Nc3nc(-c4cc(F)c(OC(F)F)c(F)c4)cs3)coc2n(C)c1=O [Example 37, N1-{4-[3,5-Difluoro-4-(difluoromethoxy)phenyl]-1,3-thiazol-2-yl}-2-(1,3-dimethyl-2,4-dioxo-1,2,3,4-tetrahydrofuro[2,3-d]pyrimidin-5-yl)acetamide] |
| 99.7 | 99.6 | < 50 | 100 | 100 | 50 to 100 | Cn1c(=O)c2c(CC(=O)Nc3nc(-c4cc(F)c(C(F)(F)F)c(F)c4)cs3)coc2n(C)c1=O [Example 36, N1-{4-[3,5-Difluoro-4-(trifluoromethyl)phenyl]-1,3-thiazol-2-yl}-2-(1,3-dimethyl-2,4-dioxo-1,2,3,4-tetrahydrofuro[2,3-d]pyrimidin-5-yl)acetamide] |
